Among the data in ChEMBL document CHEMBL1123383, “Multisubstrate inhibitors of dopamine beta-hydroxylase. 1. Some 1-phenyl and 1-phenyl-bridged derivatives of imidazole-2-thione” (J Med Chem, 1986) are IC50, Ki and inhibition values, retold here.

By IC50 is commonly meant the concentration needed to halve the response being measured. Lower therefore signals higher potency. For orientation: Ki means a measure of affinity in units of concentration, obtained from inhibition or displacement. The low end stands for a stronger hold on the target, the high end for a looser hold on the target. As usually defined, the inhibition is the change of the read-out against control, counted positive when it falls. A lower inhibition goes with little suppression.

The target of one assay is T1, Dopamine beta-hydroxylase (Bos taurus, UniProt P15101).
T1 sequence (P15101 whole entry): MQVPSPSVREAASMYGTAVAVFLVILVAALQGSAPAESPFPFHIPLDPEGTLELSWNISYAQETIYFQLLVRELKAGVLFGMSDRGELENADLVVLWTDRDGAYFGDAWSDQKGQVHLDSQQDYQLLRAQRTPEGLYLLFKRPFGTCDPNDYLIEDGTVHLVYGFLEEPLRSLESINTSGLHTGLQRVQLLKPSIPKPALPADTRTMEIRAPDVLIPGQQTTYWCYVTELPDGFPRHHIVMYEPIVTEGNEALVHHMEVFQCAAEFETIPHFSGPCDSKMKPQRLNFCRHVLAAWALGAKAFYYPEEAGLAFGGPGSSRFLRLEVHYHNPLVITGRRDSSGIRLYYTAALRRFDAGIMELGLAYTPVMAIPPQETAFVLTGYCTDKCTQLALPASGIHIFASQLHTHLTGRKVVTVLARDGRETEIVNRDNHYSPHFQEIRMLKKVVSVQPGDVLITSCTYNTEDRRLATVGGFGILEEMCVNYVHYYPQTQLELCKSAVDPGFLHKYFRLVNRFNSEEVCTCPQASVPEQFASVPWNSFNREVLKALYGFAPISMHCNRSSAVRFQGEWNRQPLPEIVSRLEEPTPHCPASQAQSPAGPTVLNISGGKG
In words: Inhibition of Dopamine beta hydroxylase.
`Oc1ccc(CCn2cc[nH]c2=S)cc1` displayed an IC50 of 23 µM.
Still for that read-out and setting: in the case of `COc1ccc(CCCCCn2cc[nH]c2=S)cc1` it was 109 µM.
`Oc1ccc(-n2ccnc2S)cc1` gave a half-inhibitory concentration (IC50) of 370 µM.
`S=c1[nH]ccn1CCSc1ccccc1` displayed an IC50 of 103 µM.
Regarding `Oc1ccc(Cn2cc[nH]c2=S)cc1`, the IC50 is 2.6 µM.
The same measure, in the same setting: to `CC(CCn1cc[nH]c1=S)c1ccccc1` (configuration not stated) belongs 18 µM; to `CC(CCc1ccccc1)n1ccnc1S` (configuration not stated), 325 µM.
The compound `Cn1cc[nH]c1=S` [METHIMAZOLE] showed an IC50 of 754 µM.
Take `Sc1nccn1-c1ccccc1`: the IC50 was 110 µM.
Consider `COc1ccc(CCCCn2cc[nH]c2=S)cc1`, for which it took 152 µM to reach half-maximal inhibition (IC50).
Turning to `Sc1nccn1CCCc1ccccc1`, the midpoint of inhibition, the IC50, lay at 16 µM.
For `COc1ccc(CCCn2cc[nH]c2=S)cc1`, the IC50 turned out to be 180 µM.
On the same count and under the same terms, in the case of `Oc1ccc(CCCn2cc[nH]c2=S)cc1` it was 2.2 µM.
`COc1ccc(CCn2ccnc2S)cc1` registered an IC50 of 68 µM.
The same measure, in the same setting: to `S=c1[nH]ccn1Cc1ccccc1` belongs 32 µM; to `S=c1[nH]ccn1CCOc1ccccc1`, 87 µM.
The same measure, in the same setting: to `CC(Cc1ccccc1)Cn1cc[nH]c1=S` (configuration not stated) belongs 29 µM; to `COc1ccc(Cn2cc[nH]c2=S)cc1`, 202 µM.

The next assay addresses T1, Dopamine beta-hydroxylase. In words: Compound was evaluated for the inhibition of Dopamine beta hydroxylase at pH 6.6.
Compound `Cn1cc[nH]c1=S` [METHIMAZOLE] gave a Ki of 716 µM.

The target of a further assay is T1, Dopamine beta-hydroxylase. In words: Compound was evaluated for the inhibition of Dopamine beta hydroxylase at pH 4.5.
As to `Cn1cc[nH]c1=S` [METHIMAZOLE], the affinity, expressed as Ki, was 45 µM.

The target of another assay is T2, Dopamine beta-hydroxylase (Bos taurus) (UniProt P15101).
T2 sequence (whole entry): T1 sequence (P15101 whole entry)
As to the kind of experiment: Compound was evaluated for the inhibition of Dopamine beta hydroxylase at a concentration of 10e-4 M.
`Oc1ccc(CCCCCn2ccnc2S)cc1` had an inhibition of 30%.

A further assay concerns the target T2, Dopamine beta-hydroxylase (Bos taurus). As to the kind of experiment: Inhibition of Dopamine beta hydroxylase at a concentration of 10e-4 M.
`NCC(c1ccccc1)n1ccnc1S` (configuration not stated) displayed an inhibition of 0%.
On to `NC(=O)C(c1ccccc1)n1ccnc1S` (configuration not stated), for which the inhibition turned out to be 4%.
For the compound `OC(Cc1ccccc1)Cn1ccnc1S` (configuration not stated), the inhibition was found to be 5%.
The same measure, in the same setting: in the case of `Oc1ccc(CCCCn2ccnc2S)cc1` it was 12%; in that of `COc1ccc(-n2ccnc2S)cc1`, 25%; in that of `O=S(=O)(CCn1ccnc1S)c1ccccc1`, 5%.
